# Experimental data: the supplement of paper PMC10307832
# Columns and labels:
# Assay in all cases: relative viability (nuclei count vs DMSO), 5 days (fraction); higher = more cells survive
# Masitinib + AZD7762 = compound: Cc1ccc(NC(=O)c2ccc(CN3CCN(C)CC3)cc2)cc1Nc1nc(-c2cccnc2)cs1 [Masitinib] + NC(=O)Nc1cc(-c2cccc(F)c2)sc1C(=O)N[C@H]1CCCNC1 [AZD7762] (partner 0.2 µM)
# How it was run: (§1)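 Relative viability equals treated-well nuclei counts divided by vehicle-well nuclei counts. Counts came from 4× images of lung cancer cell lines grown in 1536-well plates for 5 days after pin-tool dosing on the day after seeding. Dosing used one drug alone or a fixed anchor-drug dose plus five library-drug doses (not always all listed) in √10 steps, and values are medians of duplicate plates.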
# [1] = compound: CC1=CC(=CC=C1)NC2=NC(=CS2)C3=CC=NC=C3 + CCNC(=O)c1noc(-c2cc(C(C)C)c(O)cc2O)c1-c1ccc(CN2CCOCC2)cc1 [Luminespib] (partner 0.01 µM)
# How it was run: as §1
# Masitinib + Pictilisib = compound: Cc1ccc(NC(=O)c2ccc(CN3CCN(C)CC3)cc2)cc1Nc1nc(-c2cccnc2)cs1 [Masitinib] + CS(=O)(=O)N1CCN(Cc2cc3nc(-c4cccc5[nH]ncc45)nc(N4CCOCC4)c3s2)CC1 [Pictilisib] (partner 1 µM)
# How it was run: as §1
# [2] = compound: CC1=CC(=CC=C1)NC2=NC(=CS2)C3=CC=NC=C3 + O=C(c1cc(Cc2n[nH]c(=O)c3ccccc23)ccc1F)N1CCN(C(=O)C2CC2)CC1 [Olaparib] (partner 8 µM)
# How it was run: as §1
cell line,measurement,setting,value
NCI-H727,relative viability,Masitinib + AZD7762; first compound 0.01 µM,0.592
same,relative viability,Masitinib + AZD7762; first compound 0.03162 µM,0.626
same,relative viability,Masitinib + AZD7762; first compound 0.1 µM,0.566
same,relative viability,Masitinib + AZD7762; first compound 0.3162 µM,0.495
same,relative viability,Masitinib + AZD7762; first compound 1 µM,0.606
same,relative viability,[1]; first compound 0.253 µM,0.373
same,relative viability,[1]; first compound 0.8 µM,0.378
same,relative viability,[1]; first compound 2.53 µM,0.374
same,relative viability,[1]; first compound 8 µM,0.402
same,relative viability,Masitinib + Pictilisib; first compound 0.01 µM,0.506
same,relative viability,Masitinib + Pictilisib; first compound 0.03162 µM,0.416
same,relative viability,Masitinib + Pictilisib; first compound 0.1 µM,0.443
same,relative viability,Masitinib + Pictilisib; first compound 0.3162 µM,0.317
same,relative viability,Masitinib + Pictilisib; first compound 1 µM,0.317
same,relative viability,[2]; first compound 0.08 µM,0.67
same,relative viability,[2]; first compound 0.8 µM,0.679
same,relative viability,[2]; first compound 8 µM,0.743
HCC-15,relative viability,Masitinib + AZD7762; first compound 0.01 µM,0.794
same,relative viability,Masitinib + AZD7762; first compound 0.03162 µM,1.04
same,relative viability,Masitinib + AZD7762; first compound 0.1 µM,1.02
same,relative viability,Masitinib + AZD7762; first compound 0.3162 µM,0.422
same,relative viability,Masitinib + AZD7762; first compound 1 µM,1.24
same,relative viability,[1]; first compound 0.08 µM,0.386
same,relative viability,[1]; first compound 0.253 µM,0.299
same,relative viability,[1]; first compound 0.8 µM,0.475
same,relative viability,[1]; first compound 2.53 µM,0.31
same,relative viability,[1]; first compound 8 µM,0.274
same,relative viability,Masitinib + Pictilisib; first compound 0.01 µM,0.604
same,relative viability,Masitinib + Pictilisib; first compound 0.03162 µM,0.72
same,relative viability,Masitinib + Pictilisib; first compound 0.1 µM,0.672
same,relative viability,Masitinib + Pictilisib; first compound 0.3162 µM,0.77
same,relative viability,Masitinib + Pictilisib; first compound 1 µM,0.686
same,relative viability,[2]; first compound 0.08 µM,0.713
same,relative viability,[2]; first compound 0.253 µM,0.696
same,relative viability,[2]; first compound 0.8 µM,0.717
same,relative viability,[2]; first compound 2.53 µM,0.677
same,relative viability,[2]; first compound 8 µM,0.694
ABC-1,relative viability,Masitinib + AZD7762; first compound 0.01 µM,0.711
same,relative viability,Masitinib + AZD7762; first compound 0.03162 µM,0.901
same,relative viability,Masitinib + AZD7762; first compound 0.1 µM,0.743
same,relative viability,Masitinib + AZD7762; first compound 0.3162 µM,0.493
same,relative viability,Masitinib + AZD7762; first compound 1 µM,0.801
same,relative viability,[1]; first compound 0.08 µM,0.447
same,relative viability,[1]; first compound 0.253 µM,0.766
same,relative viability,[1]; first compound 0.8 µM,0.492
same,relative viability,[1]; first compound 2.53 µM,0.676
same,relative viability,[1]; first compound 8 µM,0.647
same,relative viability,Masitinib + Pictilisib; first compound 0.01 µM,0.686
same,relative viability,Masitinib + Pictilisib; first compound 0.03162 µM,0.623
same,relative viability,Masitinib + Pictilisib; first compound 0.1 µM,0.977
same,relative viability,Masitinib + Pictilisib; first compound 0.3162 µM,0.652
same,relative viability,Masitinib + Pictilisib; first compound 1 µM,0.61
same,relative viability,[2]; first compound 0.08 µM,0.48
same,relative viability,[2]; first compound 0.8 µM,0.735
same,relative viability,[2]; first compound 2.53 µM,0.525
same,relative viability,[2]; first compound 8 µM,0.574
LCLC-103H,relative viability,Masitinib + AZD7762; first compound 0.03162 µM,0.885
same,relative viability,Masitinib + AZD7762; first compound 0.1 µM,0.566
same,relative viability,Masitinib + AZD7762; first compound 0.3162 µM,0.831
same,relative viability,Masitinib + AZD7762; first compound 1 µM,0.791
same,relative viability,[1]; first compound 0.08 µM,1
same,relative viability,[1]; first compound 0.253 µM,0.824
same,relative viability,[1]; first compound 0.8 µM,0.878
same,relative viability,[1]; first compound 2.53 µM,0.943
same,relative viability,[1]; first compound 8 µM,0.608
same,relative viability,Masitinib + Pictilisib; first compound 0.01 µM,0.557
same,relative viability,Masitinib + Pictilisib; first compound 0.03162 µM,0.621
same,relative viability,Masitinib + Pictilisib; first compound 0.1 µM,0.596
same,relative viability,Masitinib + Pictilisib; first compound 0.3162 µM,0.583
same,relative viability,Masitinib + Pictilisib; first compound 1 µM,0.543
same,relative viability,[2]; first compound 0.08 µM,0.631
same,relative viability,[2]; first compound 0.253 µM,0.725
same,relative viability,[2]; first compound 0.8 µM,0.704
same,relative viability,[2]; first compound 2.53 µM,0.748
same,relative viability,[2]; first compound 8 µM,0.546
NCI-H460,relative viability,Masitinib + AZD7762; first compound 0.01 µM,0.62
same,relative viability,Masitinib + AZD7762; first compound 0.03162 µM,0.605
same,relative viability,Masitinib + AZD7762; first compound 0.1 µM,0.655
same,relative viability,Masitinib + AZD7762; first compound 0.3162 µM,0.357
same,relative viability,Masitinib + AZD7762; first compound 1 µM,0.525
same,relative viability,[1]; first compound 0.08 µM,0.0315
same,relative viability,[1]; first compound 0.253 µM,0.0322
same,relative viability,[1]; first compound 0.8 µM,0.04
same,relative viability,[1]; first compound 2.53 µM,0.0298
same,relative viability,[1]; first compound 8 µM,0.0349
same,relative viability,Masitinib + Pictilisib; first compound 0.01 µM,0.587
same,relative viability,Masitinib + Pictilisib; first compound 0.03162 µM,0.26
same,relative viability,Masitinib + Pictilisib; first compound 0.1 µM,0.415
same,relative viability,Masitinib + Pictilisib; first compound 0.3162 µM,0.254
same,relative viability,Masitinib + Pictilisib; first compound 1 µM,0.321
same,relative viability,[2]; first compound 0.08 µM,0.368
same,relative viability,[2]; first compound 0.253 µM,0.344
same,relative viability,[2]; first compound 0.8 µM,0.355
same,relative viability,[2]; first compound 2.53 µM,0.278
same,relative viability,[2]; first compound 8 µM,0.263
EPLC-272H,relative viability,Masitinib + AZD7762; first compound 0.01 µM,0.245
same,relative viability,Masitinib + AZD7762; first compound 0.03162 µM,0.206
same,relative viability,Masitinib + AZD7762; first compound 0.1 µM,0.211
same,relative viability,Masitinib + AZD7762; first compound 0.3162 µM,0.258
same,relative viability,Masitinib + AZD7762; first compound 1 µM,0.161
same,relative viability,[1]; first compound 0.08 µM,0.194
same,relative viability,[1]; first compound 0.253 µM,0.359
same,relative viability,[1]; first compound 0.8 µM,0.218
same,relative viability,[1]; first compound 2.53 µM,0.245
same,relative viability,[1]; first compound 8 µM,0.389
same,relative viability,Masitinib + Pictilisib; first compound 0.01 µM,0.29
same,relative viability,Masitinib + Pictilisib; first compound 0.03162 µM,0.304
same,relative viability,Masitinib + Pictilisib; first compound 0.1 µM,0.319
same,relative viability,Masitinib + Pictilisib; first compound 0.3162 µM,0.284
same,relative viability,Masitinib + Pictilisib; first compound 1 µM,0.293
same,relative viability,[2]; first compound 0.08 µM,0.79
same,relative viability,[2]; first compound 0.253 µM,0.673
same,relative viability,[2]; first compound 0.8 µM,0.551
same,relative viability,[2]; first compound 2.53 µM,0.687
same,relative viability,[2]; first compound 8 µM,0.619
